Results on 1 sequence are retold here after patent US9403874B2, “Peptides and use thereof” (IL YANG PHARM. CO.,LTD., priority 2012, dated 2016).

One experiment has as its system IL-6. In words: Reduction of IL-6 secretion in activated B cells (ELISA). The format is cell-based. The conditions noted are these: 100 ng/me of peptide; EBV-infected B cells stimulated with anti-CD150; ELISA of culture supernatant. The procedure, abridged:
(§1)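 Stimulate EBV-infected B cells with anti-CD150 antibodies; add each peptide at […]; collect culture supernatant; run ELISA reading absorbance at 450 nm minus 570 nm; normalise to the stimulated, untreated control taken as 100%.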
On the technique in general: An ELISA detects its analyte on a solid surface through an enzyme-linked reagent.

The test system of a further experiment is IL-1A. The experiment is described as follows: Reduction of IL-1A secretion in activated B cells (ELISA). The format is cell-based. Conditions: 100 ng/me of peptide; EBV-infected B cells stimulated with anti-CD150; ELISA of culture supernatant. The procedure, abridged: as §1
In the next experiment the test system is IL-5. The experiment is described as follows: Reduction of IL-5 secretion in activated B cells (ELISA). Format: cell-based. Conditions: 100 ng/me of peptide; EBV-infected B cells stimulated with anti-CD150; ELISA of culture supernatant. An outline of the steps: as §1
A further experiment relates to IL-34. The experiment is described as follows: Reduction of IL-34 secretion in activated B cells (ELISA). Conditions: 100 ng/me of peptide; EBV-infected B cells stimulated with anti-CD150; ELISA of culture supernatant. Format: cell-based. The procedure, abridged:
as §1

For experiment [1], the system named is collagen-induced arthritis mouse model. The experiment is described as follows: Collagen-induced arthritis mouse model. The format is in vivo. On the procedure:
In order to investigate the therapeutic effect of the peptide SIS-1, which is a representative peptide of the 18 types of novel peptides prepared in Example 1 against a representative autoimmune disease, arthritis, the experiment was performed using the collagen-induced arthritis mouse model of the literature (Nature, 283, pp 666-668, 1980; Arthritis Rheum, 46, pp 793-801, 2002).
The collagen-induced arthritis (CIA) is the model with arthritis of autoimmune disease type having similar characteristics as human rheumatoid arthritis and it was prepared by the following method.
The 100 μg of bovine type II collagen (Chondrex four, United States) was emulsified by mixing it with Freund's complete adjuvant (Chondrex, USA), and 7-week-old DBA/1 mouse ([…], male, central laboratory animals, Korea) was immunized by injecting the emulsified collagen solution intradermally at the tail region. On the 14th day of the first immunization, 50 μg of bovine type II collagen (Chondrex four, United States) was emulsified by mixing it with Freund's complete adjuvant (Chondrex, USA), and the second immune (boosting) response was induced by injecting the same intradermally at the tail region.
The novel peptide SIS-1 and a control drug, dexamethasone (DEX), were intraperitoneally administered three times a week from the next day of inducing the second immune response, and the control group (CIA) was treated with PBS.
In order to monitor the development of arthritis, the thickness of foot was measured using loop handle thickness gauge (Mitutoyo) while observing the weight change and the level of pathogenesis. In addition, the severity of the joint inflammation was assessed three times a week by two observers without knowing the contents of the experiment. Assessment of arthritis was performed by adding the scores for four legs per one mouse according to the following criteria, based on the arthritis progression index by Rossoliniec, et al. and then by taking the average of the values measured by two observers. The score and criteria for assessing arthritis are as follows:
0 point: no edema or swelling
1 point: mild edema and redness confined to foot or ankle joint
2 points: mild edema and redness in ankle joint through metatarsal
3 points: moderate edema and redness in ankle joint through metatarsal
4 points: edema and redness through the whole leg, and appearance of acampsia
The maximum arthritis index is 4 points per leg, and the maximum disease index per mouse is 16.
In order to determine the damage in the cartilage of joints, the histological examination was performed after completion of the test. On the 9th week of the animal model test, after the test animal was killed, the hind leg of the mouse hind was fixed with 10% formalin and coated with paraffin after removing compounds of calcium from the bones. Joint section was prepared and stained with hematoxylin and eosin.

The test system of another experiment is IL-8. The experiment is described as follows: Reduction of IL-8 secretion in activated B cells (ELISA). Format: cell-based. Conditions: 100 ng/me of peptide; EBV-infected B cells stimulated with anti-CD150; ELISA of culture supernatant. The procedure, abridged:
as §1

Another experiment has as its system IL-12A. The experiment is described as follows: Reduction of IL-12A secretion in activated B cells (ELISA). Conditions: 100 ng/me of peptide; EBV-infected B cells stimulated with anti-CD150; ELISA of culture supernatant. The format is cell-based. The procedure, abridged: as §1
The test system of a further experiment is GM-CSF. The experiment is described as follows: Reduction of GM-CSF secretion in activated B cells (ELISA). The format is cell-based. Conditions: 100 ng/me of peptide; EBV-infected B cells stimulated with anti-CD150; ELISA of culture supernatant. An outline of the steps:
as §1

A further experiment concerns IL-2. The experiment is described as follows: Reduction of IL-2 secretion in activated B cells (ELISA). Format: cell-based. Conditions: 100 ng/me of peptide; EBV-infected B cells stimulated with anti-CD150; ELISA of culture supernatant. The procedure, abridged:
as §1

Experiment [2] deals with TPA-induced ear edema mouse model. In words: TPA-induced ear edema mouse model. Conditions: 6 hours after TPA application, intraperitoneal, twice. The format is in vivo. The source says:
The present inventors confirmed that the peptides of the present invention are effective in alleviating inflammation invivo, along with reduction of the secretion of inflammatory cytokines as confirmed in Example 2. To be specific, in order to identify the anti-inflammatory effect of the peptide SIS-1, which is a representative peptide of 18 types of novel peptides prepared in Example 1, the present inventors used the method for evaluating the mouse ear edema wherein 12-O-tetradecanoylphorbol-13-acetate (TPA) induces acute inflammation as described in the literature (Eur J Pharmacol. 2011: 15; 672(1-3):175-179).
The TPA-induced ear edema mouse model is an animal model where erythema and edema caused by acute inflammation can be observed and it was prepared by the following method. The 24 mice of 5-week-old ICR mouse ([…], mal, central laboratory animals, Korea) were divided into 6 mice per group, and their hairs of both ears were removed before applying the sample. […]
The anti-inflammatory effect of the peptide SIS-1 was determined by observing the degree of edema inhibition as compared to the control group injected with vehicle. After 6 hours of TPA application, pictures of both ears were taken to determine the degree of ear edema, and the degree of inflammation alleviated was determined by measuring the thickness and weight per certain area of ear.

The test system of the next experiment is IL-13. In words: Reduction of IL-13 secretion in activated B cells (ELISA). Format: cell-based. The conditions noted are these: 100 ng/me of peptide; EBV-infected B cells stimulated with anti-CD150; ELISA of culture supernatant. The procedure, abridged: as §1
The subject of experiment [3] is antibodies specific to bovine type II collagen. In words: Serological analysis in collagen-induced arthritis mice (ELISA). Format: in vivo, mouse. Conditions: serum of CIA mice. Here is the method:
In order to determine the therapeutic effect of the novel peptide SIS-1 for arthritis, enzyme-linked immunosorbent assay (ELISA) was performed to measure the antibodies specific to bovine type II collagen with the serological test. As mentioned in the literature, IgG antibody, known as the rheumatoid factor (RF), or subtype of IgG (IgG1 and IgG2a) and IgM autoantibody are known to form immune complexes, cause inflammation, and develop the lesions of rheumatoid arthritis (Journal of Ethnopharmacology 112 (2007) 408).
After diluting the serum of each test group in a ratio of 1:25000 (IgG) or 1:10000 (IgG1, IgG2a, IgM), the titer of serum autoantibody specific to type II collagen was measured.

The subject of another experiment is IL-4. The experiment is described as follows: Reduction of IL-4 secretion in activated B cells (ELISA). Format: cell-based. The conditions noted are these: 100 ng/me of peptide; EBV-infected B cells stimulated with anti-CD150; ELISA of culture supernatant. An outline of the steps:
as §1

In a further experiment the test system is IL-10. In words: Reduction of IL-10 secretion in activated B cells (ELISA). The format is cell-based. The conditions noted are these: 100 ng/me of peptide; EBV-infected B cells stimulated with anti-CD150; ELISA of culture supernatant. An outline of the steps:
as §1

In the next experiment the test system is IL-17A. In words: Reduction of IL-17A secretion in activated B cells (ELISA). The conditions noted are these: 100 ng/me of peptide; EBV-infected B cells stimulated with anti-CD150; ELISA of culture supernatant. The format is cell-based. An outline of the steps:
as §1

The next experiment deals with IL-1B. The experiment is described as follows: Reduction of IL-1B secretion in activated B cells (ELISA). Format: cell-based. Conditions: 100 ng/me of peptide; EBV-infected B cells stimulated with anti-CD150; ELISA of culture supernatant. An outline of the steps: as §1

On to MSLPSPRDGRTDGRTDCTR (SIS-1 peptide), for which the “Inhibition rate of each cytokine compared to CD150-stimulated EBV-t B cells (%) IL-6” value in the experiment with IL-6 turned out to be 42.9%. Also, in the experiment with IL-1A, the “Inhibition rate of each cytokine compared to CD150-stimulated EBV-t B cells (%) IL-1A” value was found to be 22.7%. In addition, the “Inhibition rate of each cytokine compared to CD150-stimulated EBV-t B cells (%) IL-5” value with IL-5 came to 30.3%. In addition, in the experiment on IL-34, the “Inhibition rate of each cytokine compared to CD150-stimulated EBV-t B cells (%) IL-34” value was 43.4%. For the same sequence, in experiment [1] (after second immunization, versus CIA group), the “onset of disease symptom” value is “delayed”. Further, in [1] (after second immunization, intraperitoneal three times a week), the mouse weight entry is recorded as “maintained similar to that of Normal group”. The same sequence registered an incidence of arthritis in experiment [1] (by the end of the test, intraperitoneal three times a week) of 87.5%. In [1] (compared to the CIA group), the arthritis progression index result is reported as “reduced” and the “swelling of ankle joints” value is reported as “reduced”. Further, the “destruction of joints and cartilage (histology, hematoxylin and eosin)” value in experiment [1] (hind leg joint sections, 9th week) is reported as “maintained at similar level as the normal mice”. For the same sequence, in the experiment with IL-8, the “Inhibition rate of each cytokine compared to CD150-stimulated EBV-t B cells (%) IL-8” value was found to be 53.8%. Besides, in the experiment on IL-12A, the “Inhibition rate of each cytokine compared to CD150-stimulated EBV-t B cells (%) IL-12A” value is reported as 43.5%. Moreover, in the experiment with GM-CSF, the “Inhibition rate of each cytokine compared to CD150-stimulated EBV-t B cells (%) GM-CSF” value is given as 60.5%. In the experiment on IL-2, the “Inhibition rate of each cytokine compared to CD150-stimulated EBV-t B cells (%) IL-2” value is 19.7%. Also, in experiment [2], the “erythema increased by TPA application” value is “reduced”; the “inflammatory response (thickness and weight of ear increased by TPA edema)” value was “inhibited significantly”. Also, the “Inhibition rate of each cytokine compared to CD150-stimulated EBV-t B cells (%) IL-13” value in the experiment on IL-13 was 37.6%. Besides, the “reduction of autoantibodies compared with control drug DEX” value in [3] was “as effective as or superior than”. Further, the “Inhibition rate of each cytokine compared to CD150-stimulated EBV-t B cells (%) IL-4” value in the experiment on IL-4 is 59.9%. In addition, the “Inhibition rate of each cytokine compared to CD150-stimulated EBV-t B cells (%) IL-10” value with IL-10 was found to be 47.6%. Further, the “Inhibition rate of each cytokine compared to CD150-stimulated EBV-t B cells (%) IL-17A” value in the experiment with IL-17A came to 63.6%. Also, the “Inhibition rate of each cytokine compared to CD150-stimulated EBV-t B cells (%) IL-1B” value with IL-1B is listed as 25.4%.
